Columns and labels:
sugar beet = experiment: Test B pre/postemergence sugar beet; type: in vivo, Beta vulgaris
Summary of the method: (§1)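 Test chemicals in a non-phytotoxic solvent mixture with surfactant were sprayed preemergence onto planted seeds and postemergence onto plants 2 to 18 cm tall (1- to 4-leaf stage). After twelve to sixteen days in a greenhouse, injury was visually rated against untreated controls from 0 (no effect) to 10 (complete control).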

rape = experiment: Test B pre/postemergence rape; type: in vivo, Brassica napus
Summary of the method: as §1

corn = experiment: Test B pre/postemergence corn; type: in vivo, Zea mays
Summary of the method: as §1

smallflower flatsedge = experiment: Test B flood test smallflower flatsedge; type: in vivo, Cyperus difformis
Summary of the method: (§2)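 Plants were grown to the 2-leaf stage before treatment with test chemical, then held in a greenhouse for twelve to sixteen days. Injury was visually rated against untreated controls on a 0–10 scale, where 0 is no effect and 10 is complete control.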

blackgrass = experiment: Test B pre/postemergence blackgrass; type: in vivo, Alopecurus myosuroides
Summary of the method: as §1

morningglory = experiment: Test B pre/postemergence morningglory; type: in vivo, Ipomoea hederacea
Summary of the method: as §1

purple nutsedge = experiment: Test B pre/postemergence purple nutsedge; type: in vivo, Cyperus rotundus; conditions: Preemergence; for Nutsedge plant response rating: Rate 500 g/ha, scale 0 (no effect) to 10 (complete control)
Summary of the method: as §1

rice = experiment: Test B flood test rice; type: in vivo, Oryza sativa
Summary of the method: as §2

giant foxtail = experiment: Test B pre/postemergence giant foxtail; type: in vivo, Setaria faberii
Summary of the method: as §1

bedstraw = experiment: Test B pre/postemergence bedstraw; type: in vivo, Galium aparine
Summary of the method: as §1

velvetleaf = experiment: Test B pre/postemergence velvetleaf; type: in vivo, Abutilon theophrasti
Summary of the method: as §1

surinam grass = experiment: Test B pre/postemergence surinam grass; type: in vivo, Brachiaria decumbens
Summary of the method: as §1

bamyardgrass = experiment: Test B flood test barnyardgrass; type: in vivo, Echinochloa crus-galli
Summary of the method: as §2

soybean = experiment: Test B pre/postemergence soybean; type: in vivo, Glycine max
Summary of the method: as §1

pigweed = experiment: Test B pre/postemergence pigweed; type: in vivo, Amaranthus retroflexus
Summary of the method: as §1

duck salad = experiment: Test B flood test duck salad; type: in vivo, Heteranthera limosa
Summary of the method: as §2

[1] = Postemergence, Rate 250 g/ha, scale 0 to 10, 0 no effect, 10 complete control
[2] = Postemergence, Rate 1000 g/ha, scale 0 to 10 (0 no effect, 10 complete control)
[3] = Preemergence, Rate 125 g/ha, scale 0 to 10 (0 no effect, 10 complete control)
[4] = Preemergence, Rate 250 g/ha, scale of 0 to 10 where 0 is no effect and 10 is complete control
[5] = Preemergence, Rate 500 g/ha, scale 0 (no effect) to 10 (complete control)
[6] = Rate 125 g/ha, Postemergence, scale 0 to 10, 0 no effect, 10 complete control
[7] = Rate 1000 g/ha, Preemergence, scale 0 to 10 (0 no effect, 10 complete control)
[8] = Rate 500 g/ha, Postemergence, 0 to 10 scale (0 no effect, 10 complete control)
[9] = Rate 125 g/ha, Postemergence section (flood test species), scale 0 to 10, 0 no effect, 10 complete control
[10] = flood test, listed under Postemergence, Rate 250 g/ha, scale 0 to 10, 0 no effect, 10 complete control
[11] = Rate 125 g/ha, scale 0 to 10 (0 no effect, 10 complete control)
[12] = Rate 250 g/ha, scale of 0 to 10 where 0 is no effect and 10 is complete control
[13] = Rate 1000 g/ha, scale 0 to 10 (0 no effect, 10 complete control)
[14] = Rate 500 g/ha, Postemergence section of Table B, 0 to 10 scale (0 no effect, 10 complete control)

COc1ccc(-n2c(=O)on(C(=O)N(C3=CCOCC3)C(C)C)c2=O)cc1 [Compound 6]
Sugarbeets plant response rating (sugar beet; [1]): 0 | Sugarbeets plant response rating (sugar beet; [2]): 3 | Plant response rating, Sugarbeets (sugar beet; [3]): 0 | Plant response rating, Sugarbeets (sugar beet; [4]): 0 | Sugarbeets plant response rating (sugar beet; [5]): 0 | Sugarbeets plant response rating (sugar beet; [6]): 0 | Plant response rating, Sugarbeets (sugar beet; [7]): 0 | Rape plant response rating (rape; [1]): 0 | Rape plant response rating (rape; [2]): 2 | Plant response rating, Rape (rape; [3]): 0 | Plant response rating, Rape (rape; [4]): 0 | Rape plant response rating (rape; [5]): 0 | Rape plant response rating (rape; [6]): 0 | Rape plant response rating (rape; [8]): 0 | Plant response rating, Rape (rape; [7]): 0 | Corn plant response rating (corn; [1]): 0 | Corn plant response rating (corn; [2]): 4 | Plant response rating, Corn (corn; [3]): 0 | Plant response rating, Corn (corn; [4]): 1 | Corn plant response rating (corn; [5]): 2 | Corn plant response rating (corn; [6]): 0 | Corn plant response rating (corn; [8]): 0 | Plant response rating, Corn (corn; [7]): 5 | S. Flatsedge plant response rating (smallflower flatsedge; [2]): 3 | S. Flatsedge plant response rating (smallflower flatsedge; [9]): 0 | S. Flatsedge plant response rating (smallflower flatsedge; [10]): 0 | Blackgrass plant response rating (blackgrass; [1]): 7 | Blackgrass plant response rating (blackgrass; [2]): 7 | Plant response rating, Blackgrass (blackgrass; [3]): 0 | Plant response rating, Blackgrass (blackgrass; [4]): 0 | Blackgrass plant response rating (blackgrass; [5]): 2 | Blackgrass plant response rating (blackgrass; [6]): 4 | Blackgrass plant response rating (blackgrass; [8]): 7 | Plant response rating, Blackgrass (blackgrass; [7]): 7 | Morningglory plant response rating (morningglory; [1]): 2 | Morningglory plant response rating (morningglory; [2]): 7 | Plant response rating, Morningglory (morningglory; [3]): 0 | Plant response rating, Morningglory (morningglory; [4]): 0 | Morningglory plant response rating (morningglory; [5]): 0 | Morningglory plant response rating (morningglory; [6]): 0 | Morningglory plant response rating (morningglory; [8]): 5 | Plant response rating, Morningglory (morningglory; [7]): 0 | Plant response rating, Nutsedge (purple nutsedge; [11]): 0 | Plant response rating, Nutsedge (purple nutsedge; [12]): 0 | Nutsedge plant response rating (purple nutsedge): 0 | Plant response rating, Nutsedge (purple nutsedge; [13]): 0 | Rice plant response rating (rice; [2]): 3 | Rice plant response rating (rice; [9]): 0 | Rice plant response rating (rice; [14]): 0 | Rice plant response rating (rice; [10]): 0 | Giant foxtail plant response rating (giant foxtail; [1]): 4 | Giant foxtail plant response rating (giant foxtail; [2]): 7 | Plant response rating, Giant foxtail (giant foxtail; [3]): 3 | Plant response rating, Giant foxtail (giant foxtail; [4]): 4 | Giant foxtail plant response rating (giant foxtail; [5]): 9 | Giant foxtail plant response rating (giant foxtail; [6]): 2 | Giant foxtail plant response rating (giant foxtail; [8]): 5 | Plant response rating, Giant foxtail (giant foxtail; [7]): 9 | Bedstraw plant response rating (bedstraw; [1]): 0 | Bedstraw plant response rating (bedstraw; [2]): 3 | Plant response rating, Bedstraw (bedstraw; [3]): 0 | Plant response rating, Bedstraw (bedstraw; [4]): 0 | Bedstraw plant response rating (bedstraw; [5]): 0 | Bedstraw plant response rating (bedstraw; [6]): 0 | Bedstraw plant response rating (bedstraw; [8]): 0 | Plant response rating, Bedstraw (bedstraw; [7]): 0 | Velvetleaf plant response rating (velvetleaf; [1]): 0 | Velvetleaf plant response rating (velvetleaf; [2]): 1 | Plant response rating, Velvetleaf (velvetleaf; [3]): 0 | Plant response rating, Velvetleaf (velvetleaf; [4]): 2 | Velvetleaf plant response rating (velvetleaf; [5]): 2 | Velvetleaf plant response rating (velvetleaf; [6]): 0 | Plant response rating, Velvetleaf (velvetleaf; [7]): 4 | B. signalgrass plant response rating (surinam grass; [1]): 2 | B. signalgrass plant response rating (surinam grass; [2]): 7 | Plant response rating, B. signalgrass (surinam grass; [3]): 0 | Plant response rating, B. signalgrass (surinam grass; [4]): 0 | B. signalgrass plant response rating (surinam grass; [5]): 0 | B. signalgrass plant response rating (surinam grass; [6]): 0 | B. signalgrass plant response rating (surinam grass; [8]): 5 | Plant response rating, B. signalgrass (surinam grass; [7]): 5 | Barnyardgrass plant response rating (bamyardgrass; [2]): 8 | Barnyardgrass plant response rating (bamyardgrass; [9]): 0 | Barnyardgrass plant response rating (bamyardgrass; [14]): 0 | Barnyardgrass plant response rating (bamyardgrass; [10]): 0 | Soybean plant response rating (soybean; [1]): 3 | Soybean plant response rating (soybean; [2]): 6 | Plant response rating, Soybean (soybean; [3]): 0 | Plant response rating, Soybean (soybean; [4]): 0 | Soybean plant response rating (soybean; [5]): 0 | Soybean plant response rating (soybean; [6]): 3 | Plant response rating, Soybean (soybean; [7]): 0 | Redroot pigweed plant response rating (pigweed; [1]): 0 | Redroot pigweed plant response rating (pigweed; [2]): 4 | Plant response rating, Redroot pigweed (pigweed; [3]): 5 | Plant response rating, Redroot pigweed (pigweed; [4]): 5 | Redroot pigweed plant response rating (pigweed; [5]): 7 | Redroot pigweed plant response rating (pigweed; [6]): 0 | Redroot pigweed plant response rating (pigweed; [8]): 0 | Plant response rating, Redroot pigweed (pigweed; [7]): 7 | Ducksalad plant response rating (duck salad; [2]): 0 | Ducksalad plant response rating (duck salad; [9]): 0 | Ducksalad plant response rating (duck salad; [14]): 0 | Ducksalad plant response rating (duck salad; [10]): 0

CC(C)N(C(=O)n1oc(=O)n(-c2cc(Cl)cc(Cl)c2)c1=O)C1=CCOCC1 [Compound 9]
Sugarbeets plant response rating (sugar beet; [1]): 0 | Sugarbeets plant response rating (sugar beet; [2]): 0 | Plant response rating, Sugarbeets (sugar beet; [3]): 0 | Plant response rating, Sugarbeets (sugar beet; [4]): 0 | Sugarbeets plant response rating (sugar beet; [5]): 0 | Sugarbeets plant response rating (sugar beet; [6]): 0 | Plant response rating, Sugarbeets (sugar beet; [7]): 0 | Rape plant response rating (rape; [1]): 0 | Rape plant response rating (rape; [2]): 0 | Plant response rating, Rape (rape; [3]): 0 | Plant response rating, Rape (rape; [4]): 0 | Rape plant response rating (rape; [5]): 0 | Rape plant response rating (rape; [6]): 0 | Rape plant response rating (rape; [8]): 0 | Plant response rating, Rape (rape; [7]): 0 | Corn plant response rating (corn; [1]): 0 | Corn plant response rating (corn; [2]): 0 | Plant response rating, Corn (corn; [3]): 0 | Plant response rating, Corn (corn; [4]): 0 | Corn plant response rating (corn; [5]): 0 | Corn plant response rating (corn; [6]): 0 | Corn plant response rating (corn; [8]): 0 | Plant response rating, Corn (corn; [7]): 3 | S. Flatsedge plant response rating (smallflower flatsedge; [2]): 0 | S. Flatsedge plant response rating (smallflower flatsedge; [9]): 0 | S. Flatsedge plant response rating (smallflower flatsedge; [10]): 0 | Blackgrass plant response rating (blackgrass; [1]): 0 | Blackgrass plant response rating (blackgrass; [2]): 3 | Plant response rating, Blackgrass (blackgrass; [3]): 0 | Plant response rating, Blackgrass (blackgrass; [4]): 0 | Blackgrass plant response rating (blackgrass; [5]): 0 | Blackgrass plant response rating (blackgrass; [6]): 0 | Blackgrass plant response rating (blackgrass; [8]): 2 | Plant response rating, Blackgrass (blackgrass; [7]): 0 | Morningglory plant response rating (morningglory; [1]): 0 | Morningglory plant response rating (morningglory; [2]): 2 | Plant response rating, Morningglory (morningglory; [3]): 0 | Plant response rating, Morningglory (morningglory; [4]): 0 | Morningglory plant response rating (morningglory; [5]): 0 | Morningglory plant response rating (morningglory; [6]): 0 | Morningglory plant response rating (morningglory; [8]): 0 | Plant response rating, Morningglory (morningglory; [7]): 0 | Plant response rating, Nutsedge (purple nutsedge; [11]): 0 | Plant response rating, Nutsedge (purple nutsedge; [12]): 0 | Nutsedge plant response rating (purple nutsedge): 0 | Plant response rating, Nutsedge (purple nutsedge; [13]): 0 | Rice plant response rating (rice; [2]): 0 | Rice plant response rating (rice; [9]): 0 | Rice plant response rating (rice; [14]): 0 | Rice plant response rating (rice; [10]): 0 | Giant foxtail plant response rating (giant foxtail; [1]): 0 | Giant foxtail plant response rating (giant foxtail; [2]): 0 | Plant response rating, Giant foxtail (giant foxtail; [3]): 0 | Plant response rating, Giant foxtail (giant foxtail; [4]): 0 | Giant foxtail plant response rating (giant foxtail; [5]): 3 | Giant foxtail plant response rating (giant foxtail; [6]): 0 | Giant foxtail plant response rating (giant foxtail; [8]): 0 | Plant response rating, Giant foxtail (giant foxtail; [7]): 7 | Bedstraw plant response rating (bedstraw; [1]): 0 | Plant response rating, Bedstraw (bedstraw; [3]): 0 | Plant response rating, Bedstraw (bedstraw; [4]): 0 | Bedstraw plant response rating (bedstraw; [5]): 0 | Bedstraw plant response rating (bedstraw; [6]): 0 | Bedstraw plant response rating (bedstraw; [8]): 0 | Plant response rating, Bedstraw (bedstraw; [7]): 0 | Velvetleaf plant response rating (velvetleaf; [1]): 0 | Velvetleaf plant response rating (velvetleaf; [2]): 0 | Plant response rating, Velvetleaf (velvetleaf; [3]): 0 | Plant response rating, Velvetleaf (velvetleaf; [4]): 0 | Velvetleaf plant response rating (velvetleaf; [5]): 0 | Velvetleaf plant response rating (velvetleaf; [6]): 0 | Plant response rating, Velvetleaf (velvetleaf; [7]): 0 | B. signalgrass plant response rating (surinam grass; [1]): 0 | B. signalgrass plant response rating (surinam grass; [2]): 0 | Plant response rating, B. signalgrass (surinam grass; [3]): 0 | Plant response rating, B. signalgrass (surinam grass; [4]): 0 | B. signalgrass plant response rating (surinam grass; [5]): 0 | B. signalgrass plant response rating (surinam grass; [6]): 0 | B. signalgrass plant response rating (surinam grass; [8]): 0 | Plant response rating, B. signalgrass (surinam grass; [7]): 0 | Barnyardgrass plant response rating (bamyardgrass; [2]): 0 | Barnyardgrass plant response rating (bamyardgrass; [9]): 0 | Barnyardgrass plant response rating (bamyardgrass; [14]): 0 | Barnyardgrass plant response rating (bamyardgrass; [10]): 0 | Soybean plant response rating (soybean; [1]): 0 | Soybean plant response rating (soybean; [2]): 1 | Plant response rating, Soybean (soybean; [3]): 0 | Plant response rating, Soybean (soybean; [4]): 0 | Soybean plant response rating (soybean; [5]): 0 | Soybean plant response rating (soybean; [6]): 0 | Plant response rating, Soybean (soybean; [7]): 0 | Redroot pigweed plant response rating (pigweed; [1]): 0 | Redroot pigweed plant response rating (pigweed; [2]): 3 | Plant response rating, Redroot pigweed (pigweed; [3]): 0 | Plant response rating, Redroot pigweed (pigweed; [4]): 0 | Redroot pigweed plant response rating (pigweed; [5]): 0 | Redroot pigweed plant response rating (pigweed; [6]): 0 | Redroot pigweed plant response rating (pigweed; [8]): 3 | Plant response rating, Redroot pigweed (pigweed; [7]): 0 | Ducksalad plant response rating (duck salad; [2]): 0 | Ducksalad plant response rating (duck salad; [9]): 0 | Ducksalad plant response rating (duck salad; [14]): 0 | Ducksalad plant response rating (duck salad; [10]): 0
